Assay results as given in the Deep4Chem optical property database.
Values belong to the compound of their own block, whether it stands above or below them.

Assay: photoluminescence quantum yield (fraction); solvent given as SMILES
[1] = in c1ccc2c(c1)c1ccccc1n2-c1ccc(-c2ccc(-n3c4ccccc4c4ccccc43)cc2)cc1

photoluminescence quantum yield (in CC#N): 0.89
photoluminescence quantum yield (in CCO): 0.05
photoluminescence quantum yield (in O): 0.2
Structure (SMILES): CC(=O)OC[C@@H]1O[C@H](N2C=CC3=Nc4nc(C)[n+](C)cc4CN3C2=O)[C@@H](O)[C@H]1O

photoluminescence quantum yield (in ClCCl): 0.29
Structure (SMILES): O=C(c1ccc2c3c(sc2c1)-c1ccccc1P3(=O)c1ccccc1)c1c(F)c(F)c(F)c(F)c1F (configuration not stated)

photoluminescence quantum yield (in CCO): 0.26
Structure (SMILES): Oc1cccc(O)c1-c1c2ccc(=[N+]3CCCCC3)cc-2oc2cc(N3CCCCC3)ccc12

photoluminescence quantum yield (in ClCCl): 0.3
Structure (SMILES): CC(C)c1cccc(C(C)C)c1N1C(=O)c2ccc3c(-c4ccc(C(=O)O)cc4)c4c5ccc6c7c(ccc(c(-c8ccc(C(=O)O)cc8)c4c4ccc(c2c34)C1=O)c75)C(=O)N(c1c(C(C)C)cccc1C(C)C)C6=O

Structure (SMILES): CC(C)(C)c1cc(-c2cc3nc4c5ccc(N6c7ccccc7Oc7ccccc76)cc5c5cc(N6c7ccccc7Oc7ccccc76)ccc5c4nc3cc2-c2cc(C(C)(C)C)cc(C(C)(C)C)c2)cc(C(C)(C)C)c1
photoluminescence quantum yield [1]: 0.83

photoluminescence quantum yield (in CC#N): 0.683
Structure (SMILES): N#Cc1nn(-c2ccc(F)cc2)nc1N1CCCC1

photoluminescence quantum yield (in ClCCl): 0.06
Structure (SMILES): CC(C)(C)NC(=O)c1cc2ccccc2c2ccc3c4ccccc4c4ccccc4c3c12

photoluminescence quantum yield (in ClCCl): 0.31
Structure (SMILES): O=c1c2ccccc2n(-c2ccc(-c3ccc(-n4c5ccccc5c(=O)c5ccccc54)cc3)cc2)c2ccccc12

photoluminescence quantum yield (in O): 0.546
Structure (SMILES): C=CC1CN2CCC1CC2[C@H](O)c1ccnc2ccc(OC)cc12 (some centres not stated)

photoluminescence quantum yield (in CCO): 0.42
Structure (SMILES): CC1(C)Nc2cc3nc4cc(Cl)c(Cl)cc4nc3cc2N1

photoluminescence quantum yield (in ClCCl): 0.55
Structure (SMILES): F[B-]1(F)OC(c2ccccc2)=Cc2cc3[n+](c[n+]21)[B-](F)(F)OC(c1ccccc1)=C3

photoluminescence quantum yield (in CC#N): 0.08
Structure (SMILES): C=Cc1cc2ccccc2oc1=O

photoluminescence quantum yield (in ClCCl): 0.33
Structure (SMILES): CCCCCCN1C(=O)c2cccc3c(-c4ccc(-c5cc(-c6ccc(Cl)cc6)n(-c6ccccc6)n5)s4)ccc(c23)C1=O

photoluminescence quantum yield (in c1cc(-c2cccc(-n3c4ccccc4c4ccccc43)c2)cc(-n2c3ccccc3c3ccccc32)c1): 0.348
Structure (SMILES): O=C1c2cc(-n3c4ccccc4c4ccccc43)ccc2S(=O)(=O)c2ccc(-n3c4ccccc4c4ccccc43)cc21

Structure (SMILES): CN(C)c1ccc(C2=Nc3sc4cc(Cl)ccc4[n+]3[B-](F)(F)O2)cc1
photoluminescence quantum yield (in C1CCOC1): 0.74
photoluminescence quantum yield (in CC#N): 0.12
photoluminescence quantum yield (in CC(C)=O): 0.21
photoluminescence quantum yield (in Cc1ccccc1): 0.91
photoluminescence quantum yield (in ClCCl): 0.78

photoluminescence quantum yield (in ClCCl): 0.37
Structure (SMILES): N#Cc1cc(-c2ccc(/C=C/c3ccc(N(c4ccccc4)c4ccccc4)cc3)c(C#N)c2)ccc1/C=C/c1ccc(N(c2ccccc2)c2ccccc2)cc1

photoluminescence quantum yield (in CC#N): 0.049
Structure (SMILES): O=CC12N=N[C@](C=O)(C3C4CCC(C4)C31)C1[C@@H]3CC[C@@H](C3)[C@H]12 (some centres not stated)

photoluminescence quantum yield (in CC#N): 0.017
Structure (SMILES): N#CC(/N=C/c1ccccc1O)=C(C#N)/N=C/c1ccccc1O

photoluminescence quantum yield (in ClCCl): 0.12
Structure (SMILES): C(=C\c1ncnc2ccccc12)/c1ccc(N2CCCCC2)cc1

photoluminescence quantum yield (in c1ccccc1): 0.039
Structure (SMILES): CCOC(=O)CSc1nc2c(c(C#N)c1C#N)CCCCCC2

photoluminescence quantum yield (in CS(C)=O): 0.2
Structure (SMILES): Cc1cccn2c1cc1c3ccccc3nc(-c3cccs3)c12

photoluminescence quantum yield (in C1CCCCC1): 0.33
photoluminescence quantum yield (in C1COCCO1): 0.47
photoluminescence quantum yield (in CC#N): 0.28
photoluminescence quantum yield (in CC(C)O): 0.4
photoluminescence quantum yield (in CCCCCC): 0.37
photoluminescence quantum yield (in ClC(Cl)Cl): 0.42
photoluminescence quantum yield (in c1ccccc1): 0.29
Structure (SMILES): CC1(C)CCc2c(c3ccccc3c3nc4c(nc23)c2c(c3ccccc34)OC(C)(C)CC2)O1

Structure (SMILES): CC(C)(C)c1ccc2c(c1)c1cc(C(C)(C)C)ccc1n2-c1cc(N2c3ccccc3C(c3ccccc3)(c3ccccc3)c3ccccc32)cc(-n2c3ccc(C(C)(C)C)cc3c3cc(C(C)(C)C)ccc32)c1C#N
photoluminescence quantum yield (in Cc1ccccc1): 0.2

photoluminescence quantum yield (in ClCCl): 0.425
Structure (SMILES): COc1ccc2c(c1)CCC1=C(C#Cc3cc4ccccc4c4ccccc34)O[B-](F)(F)[O+]=C12

Structure (SMILES): CCCCCCCCN1c2ccc(C#Cc3ccc(C(F)(F)F)cc3)cc2Sc2cc(C=O)ccc21
photoluminescence quantum yield (in C1CCOC1): 0.67
photoluminescence quantum yield (in CC#N): 0.63
photoluminescence quantum yield (in CCCCCC): 0.57
photoluminescence quantum yield (in CO): 0.23
photoluminescence quantum yield (in CS(C)=O): 0.72
photoluminescence quantum yield (in Cc1ccccc1): 0.62
photoluminescence quantum yield (in ClC(Cl)Cl): 0.59

photoluminescence quantum yield (in ClC(Cl)Cl): 0.05
Structure (SMILES): CCCCCCCCCCOc1cc(OCCCCCCCCCC)cc(C2=C3C(/C=C/c4ccc(N(C)C)cc4)=C(C#Cc4ccc(C(C)(C)C)cc4)C(/C=C/c4ccc(N(C)C)cc4)=[N+]3[B-](F)(F)n3c(/C=C/c4ccc(N(C)C)cc4)c(C#Cc4ccc(C(C)(C)C)cc4)c(/C=C/c4ccc(N(C)C)cc4)c32)c1

photoluminescence quantum yield (in ClCCl): 0.48
Structure (SMILES): CCCCc1ccc(C#Cc2ccc3nc4ccc(C#Cc5ccc(CCCC)cc5)cn4c(=O)c3c2)cc1

Structure (SMILES): CCOC(=O)COc1ccc(/C=C/C2=C3c4ccccc4C(c4[nH]c(C)cc4C)=[N+]3[B-](F)(F)n3c(C)cc(C)c32)cc1
photoluminescence quantum yield (in C1CCOC1): 0.012
photoluminescence quantum yield (in CC#N): 0.005
photoluminescence quantum yield (in CCCCCC): 0.013
photoluminescence quantum yield (in CO): 0.002
photoluminescence quantum yield (in Cc1ccccc1): 0.012
photoluminescence quantum yield (in ClCCl): 0.014

photoluminescence quantum yield (in CO): 0.89
photoluminescence quantum yield (in CS(C)=O): 0.92
photoluminescence quantum yield (in ClC(Cl)Cl): 0.96
photoluminescence quantum yield (in c1ccccc1): 1
Structure (SMILES): CCC1=C(C)C(=O)n2c1cc1c(C)cc(C)n1c2=O

Structure (SMILES): Cc1cc(C)c(B(c2c(C)cc(C)cc2C)c2c(C)cc(N3c4ccccc4Oc4ccccc43)cc2C)c(C)c1
photoluminescence quantum yield (in Cc1ccccc1): 0.44
photoluminescence quantum yield [1]: 0.92

photoluminescence quantum yield (in C1CCOC1): 0.686
Structure (SMILES): CC(C)(C)c1ccc(-c2c(-c3ccc(N(c4ccccc4)c4ccccc4)cc3)c(C#N)c(-c3ccc(N(c4ccccc4)c4ccccc4)cc3)c(-c3ccc(C(C)(C)C)cc3)c2-c2ccc(C(C)(C)C)cc2)cc1

Structure (SMILES): Nc1ccc2c3c(cccc13)C(=O)c1ccccc1-2
photoluminescence quantum yield (in CC#N): 0.1
photoluminescence quantum yield (in CC(C)=O): 0.11
photoluminescence quantum yield (in CC(C)O): 0.03
photoluminescence quantum yield (in CCCCOCCCC): 0.34
photoluminescence quantum yield (in CCOC(C)=O): 0.21
photoluminescence quantum yield (in CCOCC): 0.26
photoluminescence quantum yield (in CO): 0.02
photoluminescence quantum yield (in Cc1ccccc1): 0.3
photoluminescence quantum yield (in Clc1ccccc1): 0.25
photoluminescence quantum yield (in N#Cc1ccccc1): 0.14
photoluminescence quantum yield (in O=C1CCCCC1): 0.15

photoluminescence quantum yield (in ClC(Cl)Cl): 0.08
Structure (SMILES): Cc1ccc(/C2=c3\cc/c(o3)=C(\c3ccc(C)cc3)c3ccc([nH]3)-c3ccc4n3[B-](F)(F)[N+]3=C(C=CC3=C4c3ccco3)c3ccc2[nH]3)cc1

photoluminescence quantum yield (in ClC(Cl)Cl): 0.19
Structure (SMILES): c1ccc(-c2nc(-c3ccc(N4CCCC4)cc3)cc(-c3ccc4ccccc4c3)n2)cc1

Structure (SMILES): CCn1c2ccccc2c2cc(-c3cc(-c4ccc5c(c4)c4ccccc4n5CC)nc(S(C)(=O)=O)n3)ccc21
photoluminescence quantum yield (in C1CCOC1): 0.61
photoluminescence quantum yield (in CCOC(C)=O): 0.76
photoluminescence quantum yield (in CN(C)C=O): 0.6
photoluminescence quantum yield (in Cc1ccccc1): 0.77
photoluminescence quantum yield (in ClCCl): 0.72

photoluminescence quantum yield (in ClCCl): 0.33
Structure (SMILES): CCCCn1c(-c2ccc(-c3nnc(-c4cccs4)o3)cc2)nc(-c2ccccc2)c1-c1ccccc1

photoluminescence quantum yield (in CC#N): 0.918
Structure (SMILES): CCCCNc1nn(-c2ccc(OC)cc2)nc1C#N

photoluminescence quantum yield (in C1CCCCC1): 0.58
photoluminescence quantum yield (in C1CCOC1): 0.27
photoluminescence quantum yield (in CC#N): 0.08
Structure (SMILES): Cn1nc(-c2ccccc2)c2nc3cc(Cl)ccc3nc21

Structure (SMILES): CN(C)CCNCc1c2ccccc2cc2ccccc12
photoluminescence quantum yield (in C1CCCCC1): 0.0769
photoluminescence quantum yield (in C1CCOC1): 0.00216
photoluminescence quantum yield (in CC#N): 0.00137
photoluminescence quantum yield (in CC(C)=O): 0.0234
photoluminescence quantum yield (in CCO): 0.0179
photoluminescence quantum yield (in CN(C)C=O): 0.00064
photoluminescence quantum yield (in CO): 0.0124
photoluminescence quantum yield (in ClC(Cl)Cl): 0.0315

Structure (SMILES): COc1cc2c(cc1/C=C(\C#N)c1nc3ccccc3s1)c1ccccc1n2C
photoluminescence quantum yield (in C1CCOC1): 0.002
photoluminescence quantum yield (in CC#N): 0.001
photoluminescence quantum yield (in CCOC(C)=O): 0.003
photoluminescence quantum yield (in CN(C)C=O): 0.003
photoluminescence quantum yield (in CO): 0.001
photoluminescence quantum yield (in CS(C)=O): 0.004
photoluminescence quantum yield (in Cc1ccccc1): 0.003
photoluminescence quantum yield (in ClC(Cl)Cl): 0.003
photoluminescence quantum yield (in ClCCl): 0.003

Structure (SMILES): CCCOc1ccc(/C=C/C=C/C=C/c2ccc([N+](=O)[O-])cc2)cc1
photoluminescence quantum yield (in CC1CCCCC1): 0.25
photoluminescence quantum yield (in CC#N): 0.011
photoluminescence quantum yield (in Cc1ccccc1): 0.54
photoluminescence quantum yield (in ClCCl): 0.06

Structure (SMILES): C(#Cc1ccc(-n2c3ccccc3c3ccccc32)cc1)c1ccc(-c2nc(-c3ccc(C#Cc4ccc(-n5c6ccccc6c6ccccc65)cc4)cc3)nc(-c3ccc(C#Cc4ccc(-n5c6ccccc6c6ccccc65)cc4)cc3)n2)cc1
photoluminescence quantum yield (in C1CCOC1): 0.69
photoluminescence quantum yield (in CC#N): 0.02
photoluminescence quantum yield (in CCCCCC): 0.94
photoluminescence quantum yield (in Cc1ccccc1): 1
photoluminescence quantum yield (in ClCCl): 0.67

photoluminescence quantum yield (in ClCCl): 0.81
photoluminescence quantum yield (in c1cc(-n2c3ccccc3c3ccccc32)cc(-n2c3ccccc3c3ccccc32)c1): 0.88
Structure (SMILES): c1ccc(N(c2ccccc2)c2ccc(-c3ccc4c(c3)C3(c5ccccc5Sc5ccccc53)c3cc(-c5ccc(N(c6ccccc6)c6ccccc6)cc5)ccc3-4)cc2)cc1

photoluminescence quantum yield (in C1CCOC1): 0.26
Structure (SMILES): Cc1ccc(-c2cnc3nn4ccccc4c3n2)cc1

Structure (SMILES): CCn1c2ccccc2c2cc(/C=C/c3cccc[n+]3CCCS(=O)(=O)[O-])ccc21
photoluminescence quantum yield (in C1CCOC1): 0.09
photoluminescence quantum yield (in CC#N): 0.03
photoluminescence quantum yield (in CC(C)=O): 0.03
photoluminescence quantum yield (in Cc1ccccc1): 0.06

Structure (SMILES): COCCC1=Cc2nc1ccc1[nH]c(cc1CCOC)c1nc(c(N3C(=O)CCCC3=O)cc3[nH]c2cc3CCOC)C(CCOC)=C1
photoluminescence quantum yield (in Cc1ccccc1): 0.36

photoluminescence quantum yield (in ClCCl): 0.15
Structure (SMILES): [O-][n+]1c(-c2ccc(Br)cc2)cc(N2CCOCC2)nc1/C=C/c1ccccc1

photoluminescence quantum yield (in C1CCCCC1): 0.51
photoluminescence quantum yield (in CC#N): 0.54
Structure (SMILES): CC(C)c1ccc(/C=C/c2nc3ccc(N(C)C)cc3s2)cc1

Structure (SMILES): COc1nnc(Cl)nn1
photoluminescence quantum yield (in ClCCl): 0.38
photoluminescence quantum yield (in OCC(F)(F)F): 0.26

Structure (SMILES): CC[N+]1(CC)CN2C(=N1)C(C(=O)O)=Cc1ccccc12
photoluminescence quantum yield (in CN(C)C=O): 0.006
photoluminescence quantum yield (in O): 0.531

photoluminescence quantum yield (in CC#N): 0.25
photoluminescence quantum yield (in ClCCl): 0.44
Structure (SMILES): CNC(=O)[C@H](C)NC(=O)c1cccc2c1C#Cc1c(N)cccc1OCCCO2

photoluminescence quantum yield (in CO): 0.0014
photoluminescence quantum yield (in ClCCl): 0.026
Structure (SMILES): CCCCCCN(CCCCCC)c1ccc(C#Cc2c(F)c(F)c(F)c(F)c2F)cc1

photoluminescence quantum yield (in CCCCCC): 0.42
Structure (SMILES): CC(C)[Si](C#Cc1c2nsnc2c(C#C[Si](C(C)C)(C(C)C)C(C)C)c2nc3c(ccc4ccccc43)nc12)(C(C)C)C(C)C
